Structures can show the parent of a compound that is named as a salt. Where two headings read alike, the source gives them in different places.

Data set [1] has as its system LN229 cells. Nature of the data set: Amino acid starvation assay: antiproliferation assay with LN229 cells (CellTiter-Glo). Type of data set: cell-based. The conditions noted are these: F12K medium, six days. The method, then:
Amino Acid Starvation Assay
The ability of compounds to inhibit amino acid uptake interact with LAT1 was measured using an antiproliferation assay with LN229 cells (ATCC®). LN229 cells were cultured in DMEM medium (VWR International). Two (2)×10^3 (2,000) cells/well were plated in clear bottom 96-well plates (CellBIND®, Corning 3340) and were allowed to attach overnight. The next day, cells were washed once with PBS buffer (VWR International). F12K medium ([…]) (VWR International) with increasing concentrations of test compounds in at least triplicate was added. Cells were incubated for six (6) days at 37° C. and 5% CO2. At end of the assay, 140 μL of supernatant medium were removed from each well and 60 μL of CellTiter-Glo® (Promega) were added. Cell lysis was induced by placing the plates for three (3) minutes on an orbital shaker. Plates were incubated for 10 min at 25° C. to stabilize the luminesce signal. Luminescence was recorded using an EnSpire® Multimode Plate Reader (Perkin Elmer). Background (luminescence from wells incubated in the presence of 100 µM of commercial LAT1 inhibitor JPH203 (MedKoo) was subtracted, and data were normalized to the DMSO control (proliferation in the absence of any competitor). Data were fitted to the Michaelis-Menten equation using GraphPad Prism (Version 8.2.0).
(ATP-based viability assays read luminescence as a measure of living cells.)

The target in data set [2] is LAT1 (Homo sapiens (Human), UniProt Q01650). Briefly: LAT1 uptake inhibition assay: [3H]-gabapentin competition uptake in LN229 cells. The settings on record: [3H]-gabapentin uptake. It counts as cell-based. The method, then: LAT1 Uptake Inhibition Assay
Chain of LAT1 (Q01650 whole entry): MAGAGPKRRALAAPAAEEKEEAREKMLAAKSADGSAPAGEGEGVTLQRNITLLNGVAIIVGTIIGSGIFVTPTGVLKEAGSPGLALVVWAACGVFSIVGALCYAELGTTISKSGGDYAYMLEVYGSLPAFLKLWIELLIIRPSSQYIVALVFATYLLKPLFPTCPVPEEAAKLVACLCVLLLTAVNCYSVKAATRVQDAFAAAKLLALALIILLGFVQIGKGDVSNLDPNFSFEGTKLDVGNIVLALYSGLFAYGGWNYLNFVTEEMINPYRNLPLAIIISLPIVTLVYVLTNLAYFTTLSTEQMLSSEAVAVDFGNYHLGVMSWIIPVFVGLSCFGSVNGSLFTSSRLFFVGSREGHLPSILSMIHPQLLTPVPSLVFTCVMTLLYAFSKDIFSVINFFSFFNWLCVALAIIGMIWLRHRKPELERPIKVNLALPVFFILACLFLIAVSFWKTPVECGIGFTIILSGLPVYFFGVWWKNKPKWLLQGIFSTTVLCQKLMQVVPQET
Chain of LAT1 (P08195 whole entry partner): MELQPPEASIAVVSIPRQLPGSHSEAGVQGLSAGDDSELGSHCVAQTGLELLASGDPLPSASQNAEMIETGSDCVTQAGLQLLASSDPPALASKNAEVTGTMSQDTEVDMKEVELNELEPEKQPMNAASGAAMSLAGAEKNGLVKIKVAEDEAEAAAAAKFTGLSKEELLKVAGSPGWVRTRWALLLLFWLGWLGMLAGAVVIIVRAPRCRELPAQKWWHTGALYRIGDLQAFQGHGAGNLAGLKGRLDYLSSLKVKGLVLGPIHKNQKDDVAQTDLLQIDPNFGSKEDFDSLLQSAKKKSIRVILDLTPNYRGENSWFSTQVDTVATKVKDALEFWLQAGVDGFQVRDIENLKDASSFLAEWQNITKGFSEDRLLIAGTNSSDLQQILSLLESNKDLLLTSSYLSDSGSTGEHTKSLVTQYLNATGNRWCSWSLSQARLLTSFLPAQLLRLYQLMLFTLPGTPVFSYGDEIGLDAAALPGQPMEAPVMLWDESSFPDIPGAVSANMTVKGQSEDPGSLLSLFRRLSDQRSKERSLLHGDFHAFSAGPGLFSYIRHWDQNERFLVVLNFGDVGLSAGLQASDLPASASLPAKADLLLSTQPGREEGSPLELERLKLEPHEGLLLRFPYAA
The ability of compounds to interact with LAT1 was measured using a radiolabeled competition uptake assay with [^3H]-Gabapentin ([^3H]-GP) (Perkin Elmer) in 96-well plates with LN229 cells (ATCC®). Ten (10)×10^3 (10,000) cells/well were plated in white, clear bottom plates and were allowed to grow for three (3) days. On the fourth day, the cells were washed and then incubated with 50,000 counts per minute (cpm) of [^3H]-GP in phosphate buffered saline (PBS) (VWR International) with increasing concentrations of test compounds in at least triplicate for 15 min. At end of the assay time, the incubation solution was removed, and plates were washed three times (3×) with 100 μL of ice-cold PBS buffer. One-hundred fifty (150) […] of scintillation fluid (VWR International) was added to each well, and the radioactivity retained within the cells was measured on a 96-well scintillation counter. Background uptake ([^3H]-GP uptake in the presence of 10 mM non-radiolabeled gabapentin (GP)) (MedKoo) was subtracted and data were normalized to the DMSO control ([^3H]-GP uptake in the absence of any competitor). Data were fitted to the Michaelis-Menten equation using GraphPad Prism (Version 8.2.0).

The mark [3] stands for this setting: Homo sapiens, LN-229, 144 h, Table 1, read-out: Anti-proliferation LC50 (μM ± SE).
The mark [4] stands for this setting: Homo sapiens, LN-229, 144 h, read-out: LC50, the concentration of test compound at which the proliferation was inhibited by 50%.
The mark [5] stands for this setting: 15 min incubation in PBS, read-out: IC50, the concentration of test compound at which the [3H]-GP uptake was inhibited by 50%.
[6] abbreviates: Table 1, read-out: LAT1 inhibition IC50 (nM ± SE).

On to `Cc1ccc(NS(=O)(=O)c2ccccc2)cc1C[C@H](N)C(=O)O` [Compound 10, (S)-2-Amino-3-(2-methyl-5-(phenylsulfonamido)phenyl)propanoic Acid], for which the results for the CC50 in data set [1] (setting [3]) and in data set [1] (setting [4]) were 70 ± 20 µM and 30 to 100 µM, respectively. Besides, the IC50 was 20 to 100 nM in data set [2] (setting [5]) and 100 ± 40 nM in data set [2] (setting [6]).
For the compound `CC(C)c1ccc(NS(=O)(=O)c2cccc3c(N(C)C)cccc23)cc1C[C@H](N)C(=O)O` [Compound 21, (S)-2-Amino-3-(5-((5-(dimethylamino)naphthalene)-1-sulfonamido)-2-isopropylphenyl)propanoic Acid], the CC50 is 49 ± 1 µM in data set [1] (setting [3]) and 30 to 100 µM in data set [1] (setting [4]). In addition, the figures for the IC50 in data set [2] (setting [5]) and in data set [2] (setting [6]) were 20 to 100 nM and 50 ± 10 nM, respectively.
On the same counts, the results for `Cc1ccc(NS(=O)(=O)c2cccc(Br)c2)cc1C[C@H](N)C(=O)O` [Compound 29, (S)-2-Amino-3-(5-((3-bromophenyl)sulfonamido)-2-methylphenyl)propanoic Acid] are 90 ± 30 µM, 30 to 100 µM, 20 to 100 nM and 40 ± 10 nM.
For `Cc1ccc(S(=O)(=O)NCc2ccccc2)cc1C[C@H](N)C(=O)O` [Compound 30, (S)-2-Amino-3-(5-(N-benzylsulfamoyl)-2-methylphenyl)propanoic Acid], the CC50 is 38 ± 2 µM in data set [1] (setting [3]) and 30 to 100 µM in data set [1] (setting [4]). The figures for the IC50 in data set [2] (setting [5]) and in data set [2] (setting [6]) were not above 20 nM and 20 ± 4 nM, respectively.
For the compound `Cc1ccc(S(=O)(=O)Nc2ccccc2)cc1C[C@H](N)C(=O)O` [Compound 35, (S)-2-Amino-3-(2-methyl-5-(N-phenylsulfamoyl)phenyl)propanoic Acid Hydrochloride], the CC50 in data set [1] (Table 1, read-out: Anti-proliferation LC50 (μM ± SE)) was determined as 40 ± 10 µM. For the same compound, the IC50 in data set [2] (setting [6]) came to 30 ± 8 nM.
As to `Cc1ccc(NS(=O)(=O)c2cccc(-c3ccccc3)c2)cc1C[C@H](N)C(=O)O` [Compound 38, (S)-3-(5-([1,1′-Biphenyl]-3-sulfonamido)-2-methylphenyl)-2-aminopropanoic Acid], the CC50 is 52 ± 2 µM in data set [1] (setting [3]) and 30 to 100 µM in data set [1] (setting [4]). Besides, the IC50 is 20 to 100 nM in data set [2] (setting [5]) and 40 ± 10 nM in data set [2] (setting [6]).
Regarding `Cc1ccc(S(=O)(=O)Nc2cccc3ccccc23)cc1C[C@H](N)C(=O)O` [Compound 39, (S)-2-Amino-3-(2-methyl-5-(N-(naphthalen-1-yl)sulfamoyl)phenyl)propanoic Acid], the CC50 was 32 ± 2 µM in data set [1] (setting [3]) and 30 to 100 µM in data set [1] (setting [4]). The IC50 in data set [2] (setting [5]) is 20 to 100 nM; in data set [2] (setting [6]), 24 ± 9 nM.
The corresponding values for `Cc1ccc(S(=O)(=O)Nc2ccc(-c3ccccc3)cc2)cc1C[C@H](N)C(=O)O` [Compound 40, (S)-3-(5-(N-([1,1′-Biphenyl]-4-yl)sulfamoyl)-2-methylphenyl)-2-aminopropanoic Acid] are 60 ± 20 µM, 30 to 100 µM, 20 to 100 nM and 25 ± 8 nM.
`CCCCNS(=O)(=O)c1ccc(C)c(C[C@H](N)C(=O)O)c1` [Compound 41, (S)-2-Amino-3-(5-(N-butylsulfamoyl)-2-methylphenyl)propanoic Acid]: the CC50 in data set [1] (setting [3]) is 36 ± 10 µM; in data set [1] (setting [4]), 30 to 100 µM. Also, the figures for the IC50 in data set [2] (setting [5]) and in data set [2] (setting [6]) were 20 to 100 nM and 56 ± 9 nM, respectively.
On the same counts, the results for `COc1ccc(NS(=O)(=O)c2ccc(C)c(C[C@H](N)C(=O)O)c2)cc1` [Compound 44, (S)-2-Amino-3-(5-(N-(4-methoxyphenyl)sulfamoyl)-2-methylphenyl)propanoic Acid] are 20 ± 6 µM, less than 30 µM, not above 20 nM and 10 ± 3 nM.
For `Cc1ccc(S(=O)(=O)Nc2cccc3c(N(C)C)cccc23)cc1C[C@H](N)C(=O)O` [Compound 49, (S)-2-Amino-3-(5-(N-(5-(dimethylamino)naphthalen-1-yl)sulfamoyl)-2-methylphenyl)propanoic Acid], the CC50 in data set [1] (setting [3]) was 100 ± 10 µM; in data set [1] (setting [4]), not below 100 µM. The figures for the IC50 in data set [2] (setting [5]) and in data set [2] (setting [6]) were 20 to 100 nM and 80 ± 20 nM, respectively.
The corresponding values for `Cc1ccc(S(=O)(=O)Nc2ccc(Cl)cc2)cc1C[C@H](N)C(=O)O` [Compound 52, (S)-2-Amino-3-(5-(N-(4-chlorophenyl)sulfamoyl)-2-methylphenyl)propanoic Acid] are 9.7 ± 0.7 µM, less than 30 µM, not above 20 nM and 12 ± 2 nM.
The corresponding values for `Cc1ccc(S(=O)(=O)NC2CCCCC2)cc1C[C@H](N)C(=O)O` [Compound 53, (S)-2-Amino-3-(5-(N-cyclohexylsulfamoyl)-2-methylphenyl)propanoic Acid] are 100 ± 10 µM, not below 100 µM, 20 to 100 nM and 60 ± 10 nM.
On to `Cc1ccc(S(=O)(=O)Nc2cccc(Br)c2)cc1C[C@H](N)C(=O)O` [Compound 76, (S)-2-Amino-3-(5-(N-(3-bromophenyl)sulfamoyl)-2-methylphenyl)propanoic Acid], for which the figures for the CC50 in data set [1] (setting [3]) and in data set [1] (setting [4]) were 11 ± 1 µM and less than 30 µM, respectively. Moreover, the values for the IC50 in data set [2] (setting [5]) and in data set [2] (setting [6]) were not above 20 nM and 9 ± 3 nM, respectively.
For `Cc1ccc(S(=O)(=O)Nc2ccc(Br)cc2)cc1C[C@H](N)C(=O)O` [Compound 77, (S)-2-Amino-3-(5-(N-(4-bromophenyl)sulfamoyl)-2-methylphenyl)propanoic Acid], the results for the CC50 in data set [1] (setting [3]) and in data set [1] (setting [4]) were 13 ± 1 µM and less than 30 µM, respectively. The IC50 was not above 20 nM in data set [2] (setting [5]) and 12 ± 4 nM in data set [2] (setting [6]).
As for `N[C@@H](Cc1cccc(S(=O)(=O)Nc2ccc(Cl)cc2)c1)C(=O)O` [Compound 79, (S)-2-Amino-3-(3-(N-(4-chlorophenyl)sulfamoyl)phenyl)propanoic Acid], the CC50 in data set [1] (setting [3]) is 100 ± 20 µM; in data set [1] (setting [4]), not below 100 µM. For the same compound, the IC50 in data set [2] (setting [5]) is 20 to 100 nM; in data set [2] (setting [6]) it was 80 ± 10 nM.
For the compound `Cc1ccc(S(=O)(=O)Nc2ccc(Cl)cc2)cc1C[C@H](N)C(=O)OC(C)(C)C` [Compound 82, tert-Butyl (S)-2-amino-3-(5-(N-(4-chlorophenyl)sulfamoyl)-2-methylphenyl)propanoate], the CC50 in data set [1] (setting [4]) is not below 100 µM. Besides, the IC50 in data set [2] (setting [5]) lay in the range of 20 to 100 nM.
With `Cc1ccc(S(=O)(=O)N(C)c2ccc(Cl)cc2)cc1C[C@H](N)C(=O)O` [Compound 84, (S)-2-Amino-3-(5-(N-(4-chlorophenyl)-N-methylsulfamoyl)-2-methylphenyl)propanoic Acid], the IC50 in data set [2] (setting [5]) was in the range of 20 to 100 nM.
Still for that read-out and setting: for `Cc1cc(S(=O)(=O)Nc2ccc(Cl)cc2)ccc1C[C@H](N)C(=O)O` [Compound 85, (S)-2-Amino-3-(4-(N-(4-chlorophenyl)sulfamoyl)-2-methylphenyl)propanoic Acid] the value was 100 to 1000 nM.
For `CC(C)c1ccc(S(=O)(=O)Nc2ccc(Cl)cc2)cc1C[C@H](N)C(=O)O` [Compound 86, (S)-2-Amino-3-(5-(N-(4-chlorophenyl)sulfamoyl)-2-isopropylphenyl)propanoic Acid], the CC50 in data set [1] (setting [3]) is 4 ± 0.7 µM; in data set [1] (setting [4]), less than 30 µM. Also, the IC50 in data set [2] (setting [5]) was not above 20 nM; in data set [2] (setting [6]), 10 ± 1 nM.
Turning to `Cc1ccc(NS(=O)(=O)c2ccc(C(C)(C)C)cc2)cc1C[C@H](N)C(=O)O` [Compound 87, (S)-2-Amino-3-(5-((4-(tert-butyl)phenyl)sulfonamido)-2-methylphenyl)propanoic Acid], the CC50 in data set [1] (setting [3]) is 100 ± 20 µM; in data set [1] (setting [4]) it was not below 100 µM. Also, the IC50 was 20 to 100 nM in data set [2] (setting [5]) and 100 ± 20 nM in data set [2] (setting [6]).
For `Nc1cc(COc2c(Cl)cc(C[C@H](N)C(=O)O)cc2Cl)c2oc(-c3ccccc3)nc2c1` [JPH203, (S)-2-Amino-3-(4-((5-amino-2-phenylbenzo[d]oxazol-7-yl)methoxy)-3,5-dichlorophenyl)propanoic Acid, reference compound], in data set [1] (setting [4]), the CC50 came out at 20 ± 10 µM. Moreover, in data set [2] (read-out: IC50 in the LAT1 uptake inhibition assay), the IC50 was 19 ± 6 nM.

The values above are taken from patent publication US20250319046A1, “PHENYLALANINE-BASED LAT1 INHIBITORS AND USES THEREOF” (MAXYMUNE THERAPEUTICS, INC., priority 2024, published 2025).
